Assay results published in doi:10.1101/2024.08.19.608619, “Discovery of potent SARS-CoV-2 nsp3 macrodomain inhibitors uncovers lack of translation to cellular antiviral response” (bioRxiv, 2024).
Values after ≈ are worked out from the molar mass of the structure shown. Values joined by “and” are separate entries in the source; they are usually repeats but may differ in a detail not shown here. Equal values may be shown once. Read-outs that look alike come from different tables or passages of the source.

Legend:
[1] = system: SARS-CoV-2, isolate USA-WA1/2020; test: microbe, parasite or virus in culture; type: cell-based; details: HeLa-ACE2 SARS-CoV-2 antiviral effect without P-gp inhibitor; for perc_max_measured: maximum measured response of dose series; for perc_min_measured: minimum measured response of dose series; for EC50: read-out: ec50; for EC90: read-out: ec90
[2] = system: SARS-CoV-2; test: Antiviral effect in iPSC-derived pneumocyte system; type: cell-based; details: iPSC pneumocytes SARS-CoV-2 antiviral effect; for perc_max_measured: maximum measured response of dose series; for perc_min_measured: minimum measured response of dose series
[3] = Hepatic microsomal stability, HLM; type: in vitro ADME, human; details: In vitro human liver microsomal stability; for perc_remaining_no_cofactor: no cofactor
[4] = Hepatic microsomal stability, MLM; type: in vitro ADME
[5] = system: iPSC pneumocytes; test: iPSC pneumocytes cytotoxicity; type: cell-based; details: for perc_max_measured: highest measured response of the dose series; for perc_min_measured: lowest measured response of the dose series
Text: Supplement media-1.zip/Cytotoxicity.csv, table | column: cc10; cc50; perc_min_measured; perc_max_measured

[6] = system: HeLa-ACE2 cells; details: protocol HeLa-ACE2 cytotoxicity; for perc_max_measured: highest measured response of the dose series; for perc_min_measured: lowest measured response of the dose series
[7] = LogD; details: pH 7.4, In vitro LogD
[8] = in vitro; design: Cytotoxicity in iPSC-derived pneumocytes, CC50; details: human, ipsc-derived pneumocytes, read-out: 50.0
Text: Finally, we consider the hypothesis that interferon response triggers ADP-ribosylation, thus profiling the compounds in enhanced and physiologically relevant interferon environments could reveal detectable antiviral effects. […] Furthermore, HeLa-ACE2 cells, and all cancerous cell lines, display defective innate immune response ([1]). As such, we also assess our compound in a primary-like iPSC-derived pneumocyte system (Figure 7C), showing likewise a lack of antiviral activity in this physiologically relevant innate immunity system.

[9] = in vitro; details: human, hela-ace2 cells, 50.0
[10] = In vitro kinetic solubility; details: In vitro kinetic solubility, ph 7.4
[11] = Permeability Papp (AB) MDR1/MDCKII; details: for perc_recovery_a_to_b_mean / perc_recovery_a_to_b_inhibitor_mean: recovery A to B; for perc_recovery_a_to_b_inhibitor_mean / perc_recovery_b_to_a_inhibitor_mean: MDR1-MDCKII; for papp_a_to_b_mean: A to B
[12] = target: SARS-CoV-2 nsp3-mac1 (Severe acute respiratory syndrome coronavirus 2, UniProt P0DTD1); test: biochemical; details: HTRF IC50, Figure 4B, bioactive pure enantiomer
[13] = in vitro; details: human
[14] = system: MDR1; test: Permeability Papp (AB) MDR1/MDCKII; details: dog, MDCK-MDR1, papp_a_to_b_mean, In vitro MDR1-MDCKII permeability, A to B, no inhibitor
[15] = In vitro mouse liver microsomal stability
[16] = In vitro mouse liver microsomal stability, no cofactor
[17] = In vitro MDR1-MDCKII permeability, no inhibitor
[18] = In vitro mouse liver microsomal stability; no cofactor
[19] = protocol iPSC pneumocytes cytotoxicity
[20] = In vitro MDR1-MDCKII permeability, mean
[21] = Severe acute respiratory syndrome coronavirus 2

Compound: CC(C)[C@@H](Nc1ncnc2[nH]c(-c3cnn(C)c3)cc12)c1ccc2c(c1)S(=O)(=O)CCC2 (single isomer, unassigned) [ASAP-0012329]
- perc_max_measured [1]: 119.22%
- perc_min_measured [1]: 72.714%
- EC50 [1]: > 20 µM
- EC90 [1]: > 20 µM
- EC50 [2]: 7.59 µM
- EC90 [2]: > 50 µM
- perc_max_measured [2]: 103.795%
- perc_min_measured [2]: 0.206%
- clint [3]: 405.0 µL/min/mg
- perc_remaining [3]: 0.0%
- t_half [3]: 4.1 min
- perc_remaining_no_cofactor [3]: 105.0%
- clint [4, 15]: 140.0 µL/min/mg
- perc_remaining [4, 15]: 10.0%
- t_half [4, 15]: 11.9 min
- perc_remaining_no_cofactor [4, 16]: 102.0%
- CC50 [5]: > 50 µM
- cc10 [5]: 30.402 µM
- perc_max_measured [5]: 108.573%
- perc_min_measured [5]: 85.97%
- CC50 [6]: > 20 µM
- cc10 [6]: > 20.0 µM
- perc_max_measured [6]: 91.281%
- perc_min_measured [6]: 71.036%
- logd [7]: 3.2
- CC50 ([8]; ASAP-0008327-001=ASAP-0012329-001): > 50 µM
- CC50 at 24 h [9]: > 20 µM
- solubility_mean [10]: 111 µM (≈ 50 µg/mL)
- papp_b_to_a_mean ([11]; In vitro MDR1-MDCKII permeability, B to A, no inhibitor): 3.9 ×10⁻⁶ cm/s and 5.0 ×10⁻⁶ cm/s
- efflux_ratio [11, 17]: 40.3 and 73.5
- perc_recovery_a_to_b_mean [11, 17]: 72.3% and 98.8% and 68.0%
- perc_recovery_b_to_a_mean ([11]; In vitro MDR1-MDCKII permeability, recovery B to A, no inhibitor): 79.2% and 106.0%
- perc_recovery_a_to_b_inhibitor_mean ([11]; with inhibitor Cyclosporin A): 77.4%
- perc_recovery_a_to_b_inhibitor_mean ([11]; with inhibitor Verapamil): 104.0%
- perc_recovery_b_to_a_inhibitor_mean ([11]; recovery B to A, with inhibitor Cyclosporin A): 63.1%
- perc_recovery_b_to_a_inhibitor_mean ([11]; recovery B to A, with inhibitor Verapamil): 96.9%

Compound: CC(C)[C@@H](Nc1ncnc2[nH]c(-c3cnn(CC(N)=O)c3)cc12)c1ccc2c(c1)OCCO2 [ASAP-0008288]
- perc_max_measured [1]: 122.799%
- perc_min_measured [1]: 73.654%
- EC50 [1]: > 50 µM
- EC90 [1]: > 50 µM
- EC50 [2]: 37.1 µM
- EC90 [2]: > 50 µM
- perc_max_measured [2]: 96.462%
- perc_min_measured [2]: 23.083%
- clint [3]: 99.0 µL/min/mg
- perc_remaining [3]: 20.0%
- t_half [3]: 16.9 min
- perc_remaining_no_cofactor [3]: 103.0%
- clint [4, 15]: 41.0 µL/min/mg
- perc_remaining [4, 15]: 54.0%
- t_half [4, 15]: 41.1 min
- perc_remaining_no_cofactor [4, 18]: 87.0%
- CC50 [5, 19]: > 50 µM
- cc10 [5, 19]: > 50.0 µM
- perc_max_measured [5, 19]: 102.79%
- perc_min_measured [5, 19]: 85.436%
- CC50 [6]: > 50 µM
- cc10 [6]: > 50.0 µM
- perc_max_measured [6]: 128.866%
- perc_min_measured [6]: 114.308%
- logd [7]: 0.9
- CC50 ([8]; ASAP-0008327-001=ASAP-0008288-001): > 50 µM
- CC50 at 24 h [9]: > 50 µM
- solubility_mean [10]: 345 µM (≈ 154 µg/mL)
- papp_a_to_b_mean [11, 20]: 0.9 ×10⁻⁶ cm/s
- perc_recovery_a_to_b_mean [11, 20]: 89.0%

Compound: CNC(=O)c1cc2c(N[C@@H](c3ccc4c(c3)OCCO4)C(C)C)ncnc2[nH]1 [ASAP-0008348]
- perc_max_measured [1]: 114.293%
- perc_min_measured [1]: 64.264%
- EC50 [1]: > 50 µM
- EC90 [1]: > 50 µM
- EC50 [2]: > 50 µM
- EC90 [2]: > 50 µM
- perc_max_measured [2]: 153.61%
- perc_min_measured [2]: 91.144%
- clint [3]: 79.0 µL/min/mg
- perc_remaining [3]: 23.0%
- t_half [3]: 21.1 min
- perc_remaining_no_cofactor [3]: 92.0%
- clint [4, 15]: 55.0 µL/min/mg
- perc_remaining [4, 15]: 43.0%
- t_half [4, 15]: 30.5 min
- perc_remaining_no_cofactor [4, 18]: 112.0%
- CC50 [5, 19]: > 50 µM
- cc10 [5, 19]: > 50.0 µM
- perc_max_measured [5, 19]: 98.804%
- perc_min_measured [5, 19]: 52.012%
- CC50 [6]: > 50 µM
- cc10 [6]: > 50.0 µM
- perc_max_measured [6]: 108.404%
- perc_min_measured [6]: 99.225%
- logd [7]: 2.76
- CC50 ([8]; ASAP-0008327-001=ASAP-0008348-001): > 50 µM
- CC50 at 24 h [9]: > 50 µM
- solubility_mean [10]: 380 µM (≈ 145 µg/mL)
- papp_a_to_b_mean [11, 20]: 1.96 ×10⁻⁶ cm/s
- perc_recovery_a_to_b_mean [11, 20]: 86.8%

Compound: CC(C)(C)[C@@H](Nc1ncnc2[nH]c(-c3cnn(CC(N)=O)c3)cc12)c1ccc2c(n1)OCCO2 [ASAP-0011162]
- perc_max_measured [1]: 115.43%
- perc_min_measured [1]: 93.464%
- EC50 [1]: > 20 µM
- EC90 [1]: > 20 µM
- EC50 [2]: 11.4 µM
- EC90 [2]: > 50 µM
- perc_max_measured [2]: 91.919%
- perc_min_measured [2]: 11.328%
- clint [3]: 42.0 µL/min/mg
- perc_remaining [3]: 49.0%
- t_half [3]: 39.8 min
- perc_remaining_no_cofactor [3]: 107.0%
- clint [4, 15]: 30.0 µL/min/mg
- perc_remaining [4, 15]: 59.0%
- t_half [4, 15]: 56.2 min
- perc_remaining_no_cofactor [4, 16]: 109.0%
- CC50 [5]: > 50 µM
- cc10 [5]: > 50.0 µM
- perc_max_measured [5]: 104.975%
- perc_min_measured [5]: 91.59%
- CC50 [6]: > 20 µM
- cc10 [6]: > 20.0 µM
- perc_max_measured [6]: 99.27%
- perc_min_measured [6]: 66.005%
- logd [7]: 2.9
- CC50 ([8]; ASAP-0008327-001=ASAP-0011162-001): > 50 µM
- CC50 at 24 h [9]: > 20 µM
- solubility_mean [10]: 390 µM (≈ 180 µg/mL)
- papp_a_to_b_mean [11, 20]: 1.53 ×10⁻⁶ cm/s
- perc_recovery_a_to_b_mean [11, 20]: 75.9%

Compound: CNCc1cc(-c2cc3c(N[C@@H](c4ccc5c(c4)S(=O)(=O)NCC5)C(C)C)ncnc3[nH]2)co1 [ASAP-0011243]
- perc_max_measured [1]: 99.818%
- perc_min_measured [1]: 81.688%
- EC50 [1]: > 20 µM
- EC90 [1]: > 20 µM
- EC50 [2]: 30.7 µM
- EC90 [2]: > 50 µM
- perc_max_measured [2]: 102.14%
- perc_min_measured [2]: 30.967%
- clint [3]: 46.0 µL/min/mg
- perc_remaining [3]: 47.0%
- t_half [3]: 35.9 min
- perc_remaining_no_cofactor [3]: 93.0%
- clint [4, 15]: 42.0 µL/min/mg
- perc_remaining [4, 15]: 49.0%
- t_half [4, 15]: 40.0 min
- perc_remaining_no_cofactor [4, 16]: 95.0%
- CC50 [5]: > 50 µM
- cc10 [5]: > 50.0 µM
- perc_max_measured [5]: 101.3%
- perc_min_measured [5]: 90.486%
- CC50 [6]: > 20 µM
- cc10 [6]: > 20.0 µM
- perc_max_measured [6]: 96.42%
- perc_min_measured [6]: 81.709%
- logd [7]: 1.9
- CC50 ([8]; ASAP-0008327-001=ASAP-0011243-001): > 50 µM
- CC50 at 24 h [9]: > 20 µM
- solubility_mean [10]: 372 µM (≈ 179 µg/mL)
- papp_a_to_b_mean [11, 20]: 1.2 ×10⁻⁶ cm/s
- perc_recovery_a_to_b_mean [11, 20]: 76.5%

Compound: CCNC(=O)c1cc2c(NC(c3ccc4c(c3)S(=O)(=O)CCC4)C(C)C)ncnc2[nH]1 (stereo not drawn) [ASAP-0012349]
- IC50 [12]: 0.031 µM
- perc_max_measured [1]: 108.517%
- perc_min_measured [1]: 90.612%
- EC50 [1, 21]: > 20 µM
- EC90 [1, 21]: > 20 µM
- perc_remaining [3]: 0.0%
- t_half [3]: 1.9 min
- perc_remaining_no_cofactor [3]: 102.0%
- microsomal CLint ([3]; human, liver microsomes): 892 µL/min/mg
- perc_remaining [4, 15]: 43.0%
- t_half [4, 15]: 30.8 min
- perc_remaining_no_cofactor [4, 16]: 114.0%
- microsomal CLint ([4]; mouse, liver microsomes, In vitro mouse liver microsomal stability): 54 µL/min/mg
- cc10 [6]: > 20.0 µM
- perc_max_measured [6]: 99.328%
- perc_min_measured [6]: 84.17%
- logd ([7]; pH 7.4, logd): 2.8
- CC50 [13]: > 20 µM
- solubility ([10]; pH 7.4, solubility_mean): 316 µM (≈ 140 µg/mL)
- perc_recovery_a_to_b_mean [11, 17]: 66.9%
- Papp A→B [14]: 0.532 ×10⁻⁶ cm/s
